# In patent US9492456B2, “Valomaciclovir polymorphs” (EPIPHANY BIOSCIENCES, INC., priority 2007, dated 2016):
# Entries after “also recorded” stand apart in the source; their conditions may differ. Read-outs that look alike come from different tables or passages of the source.
# Assays:
# [1] = Powder flow (Carr Index, tapped compressibility); format: physicochemical
# Excerpt: The flow characteristics of the solid products of this invention can be measured by the Carr index [Pharmaceutical Preformulation and Formulation, A practical guide from candidate selection to commercial dosage form, Mark Gibson, Ed.; Interpharm Press, 2002; pages 386-7.) By subjecting a powder to mechanical forces, resistance to powder flow can be observed. The increase in bulk density (compressibility) of a powder subjected to tapping can be used to determine the Carr index. In some embodiments, the Polymorph A enriched valomaciclovir has a Carr index value range from about 35 to about 50.
# By subjecting a powder to mechanical forces, resistance to powder flow can be observed. The increase in bulk density (compressibility) of a powder subjected to tapping can be used to determine the Carr index. This index was measured for each of the four recrystallized batches and tabulated below.
# Powder flow characteristics were compared using the Carr Index. By subjecting a powder to mechanical forces, resistance to powder flow can be observed. The increase in bulk density (compressibility) of a powder subjected to tapping can be used to determine the Carr index. A summary of Carr indices and qualitative flow properties are summarized below in Table 13.
# Batches were sieved to <1000 microns before testing. This was necessary to remove any clumps in the samples.
# [2] = Particle and agglomerate size by polarized light microscopy in silicone oil; format: physicochemical
# Excerpt: The particle size of the solid product of this invention can be evaluated in silicone oil using polarized light microscopy. In some embodiments, Polymorph A enriched valomaciclovir has particle size range from about 10 to about 300 microns as measured using this system.
# Polarized light microscopy was used to evaluate the particle size range of the recrystallized samples in silicone oil. The particle size range is reported in Table 4 along with the powder flow data.
# A Zeiss Universal microscope configured with a polarized visible light source and polarizable analyzer was used to evaluate the optical properties of the samples. Specimens were typically mounted on a microscope slide with a drop of immersion oil and a cover glass. Magnification was typically 250×. Observations of particle/crystal size and shape were recorded. The presence of birefringence was also noted.
# [3] = Powder flow (Carr Index, tapped compressibility); format: physicochemical; conditions: visual observation
# [4] = Competitive and non-competitive slurry experiments in ethanol (energy relationships); format: physicochemical
# Description: Competitive slurry experiments were performed using mixtures (normally 50:50) of the forms in ethanol and agitating at approximately 25° C. for several days. Noncompetitive slurries were performed by agitating excess solids of one form in ethanol at room temperature. […] In both the competitive and noncompetitive slurry experiments, the solids were vacuum filtered and analyzed by XRD. The XRD patterns are used to determine if the undissolved solids had transformed into a different polymorphic form. In one case, a different polymorphic form emerged that was different than either of the two forms initially present. This indicates both original forms were metastable to the final form isolated.
# [5] = Polymorph screening study, summary of forms; format: physicochemical; conditions: Table 12 summary
# Description: A polymorph screening study was performed on valomaciclovir active pharmaceutical ingredient. The screen entailed recrystallizing the material using solvent recrystallization, recrystallization from the melt, annealing experiments, and slurry experiments. Overall, the API was recrystallized under more than 100 different crystal growth conditions and analyzed using powder x-ray diffraction. A chemometric treatment of the x-ray data was used to categorize the samples into different groups. These groups were studied using thermal, optical, spectroscopic and other tools to elucidate which groups represent unique solid state forms of the API.
# The raw diffraction data generated from the polymorph screening experiments (solvent recrystallization, recrystallization from the melt, annealing, non-competitive slurries) were initially categorized into 8 different groups using a chemometric treatment. Analyses of these different groups were used to perform additional experiments (e.g. DSC, TGA, HSM, NMR, etc.) to refine the groups identified by the chemometric treatment.
# [6] = test system: human varicella zoster virus (VZV); conditions: cited from earlier work
# Epstein-Barr virus (EBV) = conditions: cited from earlier work
# [7] = test system: human herpesvirus-6 (HHV-6); conditions: cited from earlier work
# HSV-I = conditions: cited from earlier work
# HSV-2 = conditions: cited from earlier work
# [8] = Water solubility / lipophilicity of the API; format: physicochemical
# [9] = human, multiple dosing, total daily doses of up to 6.0 g; cited from earlier work
# zoster = conditions: suspension, 250, 500 and 750 mg BID for 7 days, zoster patients, acyclovir control; cited from earlier work
# [10] = Table 2, earlier valomaciclovir batches, sieved to <1000 microns
# [11] = Table 2, earlier batches, no unit in table (microns)
structure (smiles),measurement,setting,value
CCCCCCCCCCCCCCCCCC(=O)OC[C@@H](CCn1cnc2c(=O)[nH]c(N)nc21)COC(=O)[C@@H](N)C(C)C [Batch 12-03-018],Carr Index,[1]; [10],48
same,Agglomerate Size,[2]; [11],100
same,Typical Particle Size Range,[2]; [11],5-40
CCCCCCCCCCCCCCCCCC(=O)OCC(CCOC(=O)C(N)C(C)C)Cn1cnc2c(=O)[nH]c(N)nc21 (stereo not shown) [Batch 52772-2-7],Carr Index,"[1]; Table 4, recrystallized samples (ethanol or SDA 3C), listed as 52772-2-7",53
same,Typical Particle Size Range,"[2]; Table 4, recrystallized samples, in silicone oil, no unit in table, listed as 52772-2-7",20-50
CCCCCCCCCCCCCCCCCC(=O)OCC(CCOC(=O)C(N)C(C)C)Cn1cnc2c(=O)[nH]c(N)nc21 (stereo not shown) [Batch 52772-3-17],Carr Index,"[1]; Table 4, recrystallized samples (ethanol or SDA 3C), listed as 52772-3-17",56
same,Typical Particle Size Range,"[2]; Table 4, recrystallized samples, in silicone oil, no unit in table, listed as 52772-3-17",10-30
CCCCCCCCCCCCCCCCCC(=O)OC[C@H](CCOC(=O)[C@@H](N)C(C)C)Cn1cnc2c(=O)[nH]c(N)nc21 [Batch 52772-5-8],Carr Index,"[1]; Table 4, recrystallized samples (ethanol or SDA 3C), listed as 52772-5-8",44
same,Typical Particle Size Range,"[2]; Table 4, recrystallized samples, in silicone oil, no unit in table, listed as 52772-5-8",35-50
CCCCCCCCCCCCCCCCCC(=O)OC[C@H](CCOC(=O)[C@@H](N)C(C)C)Cn1cnc2c(=O)[nH]c(N)nc21 [Batch 52772-8-10],Carr Index,"[1]; Table 4, recrystallized samples (ethanol or SDA 3C), listed as 52772-8-10",38
same,Typical Particle Size Range,"[2]; Table 4, recrystallized samples, in silicone oil, no unit in table, listed as 52772-8-10",150-300
CCCCCCCCCCCCCCCCCC(=O)OC[C@H](CCOC(=O)[C@@H](N)C(C)C)Cn1cnc2c(=O)[nH]c(N)nc21 [Batch 146756],Flowability (in words),[1],extremely poor flowability
same,Carr Index,[1]; [10],64
same,Agglomerate Size,[2]; [11],200
same,Typical Particle Size Range,[2]; [11],5-20
same,Handleability and powder flow,[3],poor handleability and poor powder flow
CCCCCCCCCCCCCCCCCC(=O)OC[C@@H](CCn1cnc2c(=O)[nH]c(N)nc21)COC(=O)[C@@H](N)C(C)C [Form A],Flowability (in words),[1]; listed as Polymorph A,more flowable
same,Flowability (in words),[1]; listed as Polymorph A enriched valomaciclovir,good flow characteristics
same,Thermodynamic stability (in words),[4]; from slurry experiments and thermal behaviour,most stable polymorphic form; also recorded: more thermodynamically stable than the B polymorphs; also recorded: thermodynamically stable form
same,Thermodynamic stability (in words),"[4]; from slurry experiments and thermal behaviour, listed as Polymorph A",thermodynamically the most stable polymorph of valomaciclovir
same,Relative solubility of polymorphic forms (in words),[4]; inferred from slurry conversion / enantiotropic relationship,less soluble
same,Description (stability class of the polymorphic form),[5],Thermodynamically
CCCCCCCCCCCCCCCCCC(=O)OCC(CCn1cnc2c(=O)[nH]c(N)nc21)COC(=O)C(N)C(C)C (stereo not shown) [Form B1],Description (stability class of the polymorphic form),[5],Metastable Polymorph
CCCCCCCCCCCCCCCCCC(=O)OCC(CCOC(=O)C(N)C(C)C)Cn1cnc2c(=O)[nH]c(N)nc21 (stereo not shown) [Form B2],Description (stability class of the polymorphic form),[5],Metastable Polymorph
CCCCCCCCCCCCCCCCCC(=O)OCC(CCn1cnc2c(=O)[nH]c(N)nc21)COC(=O)C(N)C(C)C (stereo not shown) [Form B3],Description (stability class of the polymorphic form),[5],Metastable Polymorph
CCCCCCCCCCCCCCCCCC(=O)OCC(CCn1cnc2c(=O)[nH]c(N)nc21)COC(=O)C(N)C(C)C (stereo not shown) [Form B4],Description (stability class of the polymorphic form),[5],Metastable Polymorph
Nc1nc2c(ncn2C[C@H](CO)CCO)c(=O)[nH]1 [Form H2G],Antiviral activity (in words),[6],potent activity
same,Antiviral activity (in words),Epstein-Barr virus (EBV),potent activity
same,Antiviral activity (in words),[7],potent activity
same,Antiviral activity (in words),HSV-I,potent activity
same,Antiviral activity (in words),HSV-2,potent activity
CCCCCCCCCCCCCCCCCC(=O)OCC(CCn1cnc2c(=O)[nH]c(N)nc21)COC(=O)C(N)C(C)C (stereo not shown) [Form H],Relative solubility of polymorphic forms (in words),[4],more soluble
same,Thermodynamic stability (in words),[4],less thermodynamically stable than the B polymorphs
"CCCCCCCCCCCCCCCCCC(=O)OC[C@H](CCOC(=O)[C@@H](N)C(C)C)Cn1cnc2c(=O)[nH]c(N)nc21 [valomaciclovir, L-valine, (3R)-3-[(2-amino-1,6-dihydro-6-oxo-9H-purin-9-yl)methyl]-4-[(1-oxooctadecyl)oxy]butyl ester]",Lipophilicity (in words),[8],fairly lipophilic
same,Solubility in water (in words),[8]; water,practically insoluble in water
same,Safety and tolerability,[9],safe and well tolerated
same,Zoster lesion healing,zoster,proof-of-concept for zoster lesion healing
